Entries after “also recorded” stand apart in the source; their conditions may differ.
Assays:
OR2A4/7 [1] = settings: screening approach, Tsai et al. 2017; cited from earlier work
[2] = test system: microdissected human scalp HFs; experiment: Organ culture of microdissected HFs with CHS: hair cycle staging and hair matrix keratinocyte proliferation (Ki-67/TUNEL, Masson Fontana); format: cell-based; settings: 50 μM CHS vs vehicle, 6 days
Source text: Temporal and occipital human scalp skin was obtained from healthy donors (38-69 years old) undergoing routine face-lift surgery. Scalp skin samples were processed for HF microdissection (Edelkamp J, Gherardini J, Bertolini M, Methods to study human hair follicle growth ex vivo: human microdissected hair follicle and human full thickness skin organ culture, Methods Mol. Biol. 2154 (2020) 105-119). […]
OCT-embedded samples were sectioned (6 μm thickness for HF and 7 μm thickness for skin) with a Leica cryostat. […] Images were taken using a Keyence fluorescence microscope BZ9100 (Osaka, Japan) maintaining a constant set exposure time throughout imaging for further analysis.
HFs were microscopically evaluated for the hair cycle staging analysis using Masson-Fontana histochemistry and Ki-67/TUNEL immunostainings (Langan EA, et al. Human hair follicle organ culture: theory, application and perpsectives. Exp. Dermatol. 2015;24:903-911. doi: 10.1111/exd.12836; Kloepper JE, et al. Methods in hair research: how to objectively distinguish between anagen and catagen in human hair follicle organ culture. Exp. Dermatol. 2010;19:305-312. doi: 10.1111/j.1600-0625.2009.00939.x;). […]

OR2A4/7 [3] = experiment: Intracellular Ca2+ signals in human melanocytes; format: cell-based
[4] = test system: microdissected human scalp HFs; experiment: Organ culture of microdissected human HFs with CHS: OR2A4/7 expression and HF stem cell/progeny number by quantitative (immuno)histomorphometry; format: cell-based; settings: 50 μM CHS vs vehicle, 6 days
Procedure: Temporal and occipital human scalp skin was obtained from healthy donors (38-69 years old) undergoing routine face-lift surgery. Scalp skin samples were processed for HF microdissection (Edelkamp J, Gherardini J, Bertolini M, Methods to study human hair follicle growth ex vivo: human microdissected hair follicle and human full thickness skin organ culture, Methods Mol. Biol. 2154 (2020) 105-119).
Microdissected human scalp HFs were cultured at 37° C. with 5% CO2 in a minimal media of William's E media (WEM, Gibco, Life Technologies) supplemented with 2 mM of L-glutamine (Gibco), 10 ng/ml hydrocortisone (Sigma-Aldrich), 10 μg/ml insulin (Sigma-Aldrich), and 1% penicillin/streptomycin mix (Gibco) 25,26,62. After microdissection, the HFs were first incubated in WEM for 24 h for re-equilibration.
HFs after quality control (fully pigmented and presence in anagen VI phase) were randomly allocated to the different experimental groups.
After 24 h, WEM mediμm was replaced and HFs were treated with vehicle or 50 μM CHS for 6 days for (immuno) histomorphometry.
OCT-embedded samples were sectioned (6 μm thickness for HF and 7 μm thickness for skin) with a Leica cryostat. Sections obtained from the organ culture were stained using OR2A4/7 and integrin α-6 antibodies. A double-staining, […] wa salso performed. Sections without primary antibody were used as negative control. […]
Staining intensity was evaluated in well-defined reference areas by quantitative (immuno-) histomorphometry (Fischer T W, et al. Differential effects of caffeine on hair shaft elongation, matrix and outer root sheath keratinocyte proliferation, and transforming growth factor-B2/insulin-like growth factor-1-mediated regulation of the hair cycle in male and female human hair follicles in vitro. Br. J. Dermatol. 2014;171:1031-1043. doi: 10.1111/bjd.13114.; Samuelov L, et al. P-cadherin regulates human hair growth and cycling via canonical Wnt signaling and transforming growth factor-62. J. Invest. […]

Q: For `O=C(OC1CCCCC1)c1ccccc1O` [CHS, cyclohexyl salicylate], which “agonism at OR2A4/7” value (OR2A4/7 [1]) is on record?
A: Its value is “specific agonist”.

Q: And the “HFs in anagen (hair cycle staging)” value ([2]; ex vivo HFs (FIG. 4a))?
A: Its value is “prolongs anagen; also recorded: increase”.

Q: And the “hair matrix keratinocyte proliferation (Ki-67)” value ([2]; ex vivo HFs (FIG. 4b))?
A: The value was “induces hair matrix keratinocyte proliferation”.

Q: What about the “intracellular Ca2+ signals” value (OR2A4/7 [3]) of the same compound?
A: The value was “elicited transient intracellular Ca2+ signals”.

Q: And the “OR2A4/7 protein expression in the HF bulb” value ([4]; ex vivo HFs (FIG. 2))?
A: The value was “receptor downregulation”.

Q: What about the “K15+ stem cells in the basal layer of the bulge” value ([4]; ex vivo HFs (FIG. 3a)) of the same compound?
A: Its value is “did not seem to impact; also recorded: No differences”.

Q: What about the “CD34+ cells in the suprabulbar ORS” value ([4]; ex vivo HFs (FIG. 3b)) of the same compound?
A: Its value is “significantly increased”.
